Laboratory results taken from patent US9549932B2, “2-(morpholin-4-yl)-1,7-naphthyridines” (BAYER PHARMA AKTIENGESELLSCHAFT, priority 2014, dated 2017).

Target: full-length human ATR protein (Homo sapiens (Human), UniProt Q13535)
Assay: Binding assay ATR (TR-FRET tracer displacement)
Settings: tracer A, TR-FRET; read-out: ATR binding (tracer A) IC50
Method in brief: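 Full-length human GST-ATR co-purified with ATRIP, pre-complexed 30 min at 22 °C with anti-GST-Tb antibody, then pre-bound with compound 10 min. Tracer A or B added (2 µl of 100 nM solution), 30 min at 22 °C.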

full-length human ATR protein, sequence (Q13535 other isoform, or with tags, fused parts or gaps): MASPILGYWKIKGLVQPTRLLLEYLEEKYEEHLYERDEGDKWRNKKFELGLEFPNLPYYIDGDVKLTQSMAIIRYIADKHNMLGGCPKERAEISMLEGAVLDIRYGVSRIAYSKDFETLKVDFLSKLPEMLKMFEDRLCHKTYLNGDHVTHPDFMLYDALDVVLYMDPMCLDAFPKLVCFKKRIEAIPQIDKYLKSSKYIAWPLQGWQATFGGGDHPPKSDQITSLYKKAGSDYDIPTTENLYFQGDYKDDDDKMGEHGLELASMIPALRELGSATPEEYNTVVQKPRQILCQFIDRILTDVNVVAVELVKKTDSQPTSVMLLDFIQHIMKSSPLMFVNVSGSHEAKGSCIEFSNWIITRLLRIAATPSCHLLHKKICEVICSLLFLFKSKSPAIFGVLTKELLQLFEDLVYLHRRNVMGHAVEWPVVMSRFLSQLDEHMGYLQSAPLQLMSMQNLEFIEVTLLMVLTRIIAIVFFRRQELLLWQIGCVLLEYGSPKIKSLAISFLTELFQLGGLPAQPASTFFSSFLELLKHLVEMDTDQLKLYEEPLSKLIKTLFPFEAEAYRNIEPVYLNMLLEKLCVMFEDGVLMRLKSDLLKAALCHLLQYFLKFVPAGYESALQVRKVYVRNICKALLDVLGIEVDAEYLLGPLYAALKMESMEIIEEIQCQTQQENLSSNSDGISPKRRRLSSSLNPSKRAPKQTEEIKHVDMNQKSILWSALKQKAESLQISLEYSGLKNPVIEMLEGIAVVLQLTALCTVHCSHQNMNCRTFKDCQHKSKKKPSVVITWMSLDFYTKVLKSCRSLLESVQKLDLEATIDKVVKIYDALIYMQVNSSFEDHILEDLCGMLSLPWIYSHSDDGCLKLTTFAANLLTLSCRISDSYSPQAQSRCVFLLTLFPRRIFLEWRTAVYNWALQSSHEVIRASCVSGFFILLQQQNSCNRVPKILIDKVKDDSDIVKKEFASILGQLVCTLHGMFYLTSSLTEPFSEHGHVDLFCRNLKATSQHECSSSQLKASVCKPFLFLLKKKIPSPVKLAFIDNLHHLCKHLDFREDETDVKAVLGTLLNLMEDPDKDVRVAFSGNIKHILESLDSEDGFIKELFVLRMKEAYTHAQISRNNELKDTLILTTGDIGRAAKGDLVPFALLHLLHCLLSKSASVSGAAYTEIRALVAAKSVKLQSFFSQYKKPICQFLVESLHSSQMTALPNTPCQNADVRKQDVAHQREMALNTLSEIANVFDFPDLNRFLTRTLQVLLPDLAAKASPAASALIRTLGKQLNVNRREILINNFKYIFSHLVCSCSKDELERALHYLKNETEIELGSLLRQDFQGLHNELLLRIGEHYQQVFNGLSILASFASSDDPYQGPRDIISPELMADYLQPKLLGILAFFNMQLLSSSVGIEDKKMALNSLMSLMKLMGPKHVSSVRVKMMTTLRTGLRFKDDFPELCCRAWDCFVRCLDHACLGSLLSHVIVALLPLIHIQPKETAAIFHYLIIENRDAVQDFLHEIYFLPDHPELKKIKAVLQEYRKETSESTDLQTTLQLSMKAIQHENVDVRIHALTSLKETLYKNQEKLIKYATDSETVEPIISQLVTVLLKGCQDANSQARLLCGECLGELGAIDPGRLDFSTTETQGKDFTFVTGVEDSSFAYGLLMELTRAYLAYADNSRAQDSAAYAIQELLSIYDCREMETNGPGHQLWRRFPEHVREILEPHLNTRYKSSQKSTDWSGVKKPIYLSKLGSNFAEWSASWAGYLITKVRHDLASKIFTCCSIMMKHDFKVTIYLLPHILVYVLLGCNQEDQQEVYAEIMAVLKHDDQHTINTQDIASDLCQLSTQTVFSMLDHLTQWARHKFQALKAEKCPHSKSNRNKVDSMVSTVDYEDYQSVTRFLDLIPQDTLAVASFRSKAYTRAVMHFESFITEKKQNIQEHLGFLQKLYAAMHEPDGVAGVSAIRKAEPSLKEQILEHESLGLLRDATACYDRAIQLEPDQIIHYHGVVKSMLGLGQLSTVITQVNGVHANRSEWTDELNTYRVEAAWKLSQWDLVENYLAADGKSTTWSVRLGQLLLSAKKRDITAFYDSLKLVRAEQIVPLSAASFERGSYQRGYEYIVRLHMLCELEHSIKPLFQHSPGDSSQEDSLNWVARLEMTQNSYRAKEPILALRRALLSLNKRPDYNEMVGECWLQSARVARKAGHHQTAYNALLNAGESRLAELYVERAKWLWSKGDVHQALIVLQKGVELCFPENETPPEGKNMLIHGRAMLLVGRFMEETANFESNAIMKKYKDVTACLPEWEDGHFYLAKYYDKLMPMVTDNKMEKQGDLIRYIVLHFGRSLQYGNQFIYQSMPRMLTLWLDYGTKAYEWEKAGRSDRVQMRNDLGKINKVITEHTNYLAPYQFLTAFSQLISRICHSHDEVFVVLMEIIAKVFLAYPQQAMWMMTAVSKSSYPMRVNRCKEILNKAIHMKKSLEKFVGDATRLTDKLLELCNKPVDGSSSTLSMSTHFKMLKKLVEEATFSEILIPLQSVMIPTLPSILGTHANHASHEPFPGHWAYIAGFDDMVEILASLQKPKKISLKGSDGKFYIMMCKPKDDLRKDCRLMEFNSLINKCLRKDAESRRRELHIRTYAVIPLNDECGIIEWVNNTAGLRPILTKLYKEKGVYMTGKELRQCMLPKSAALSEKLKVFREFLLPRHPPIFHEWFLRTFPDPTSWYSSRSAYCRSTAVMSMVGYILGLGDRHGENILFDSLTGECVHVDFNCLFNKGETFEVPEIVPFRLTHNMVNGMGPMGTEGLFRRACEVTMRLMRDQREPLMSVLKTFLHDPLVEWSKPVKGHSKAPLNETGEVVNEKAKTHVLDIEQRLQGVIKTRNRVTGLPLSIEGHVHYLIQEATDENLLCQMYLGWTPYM
full-length human ATR protein, sequence (Q8WXE1 other isoform, or with tags, fused parts or gaps partner): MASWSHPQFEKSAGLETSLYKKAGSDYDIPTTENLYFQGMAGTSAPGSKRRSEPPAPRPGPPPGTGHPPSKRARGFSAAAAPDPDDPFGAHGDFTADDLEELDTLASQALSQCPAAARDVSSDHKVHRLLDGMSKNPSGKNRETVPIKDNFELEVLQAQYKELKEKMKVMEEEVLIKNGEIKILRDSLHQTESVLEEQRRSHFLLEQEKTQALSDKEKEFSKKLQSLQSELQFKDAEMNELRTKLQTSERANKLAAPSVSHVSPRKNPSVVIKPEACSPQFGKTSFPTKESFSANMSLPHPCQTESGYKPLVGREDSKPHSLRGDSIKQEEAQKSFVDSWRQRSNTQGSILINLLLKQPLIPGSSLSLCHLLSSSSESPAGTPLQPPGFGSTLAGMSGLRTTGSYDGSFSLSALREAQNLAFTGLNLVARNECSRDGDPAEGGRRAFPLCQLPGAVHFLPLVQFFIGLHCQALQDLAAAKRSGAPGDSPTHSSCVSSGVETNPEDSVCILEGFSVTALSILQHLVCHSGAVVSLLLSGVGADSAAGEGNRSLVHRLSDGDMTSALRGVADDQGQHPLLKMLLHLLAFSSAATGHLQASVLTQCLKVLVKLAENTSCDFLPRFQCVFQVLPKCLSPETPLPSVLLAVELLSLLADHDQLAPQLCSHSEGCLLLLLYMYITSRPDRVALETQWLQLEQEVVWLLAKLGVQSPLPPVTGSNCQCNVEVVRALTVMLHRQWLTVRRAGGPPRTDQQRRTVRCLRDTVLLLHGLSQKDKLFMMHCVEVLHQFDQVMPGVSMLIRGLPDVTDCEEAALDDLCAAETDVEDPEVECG

| Compound | IC50 [nM] |
| --- | --- |
| Cc1nnc(-c2cc(N3CCOC[C@H]3C)nc3c(-c4ccn[nH]4)nccc23)o1 [Example 136, 2-[(3R)-3-methylmorpholin-4-yl]-4-(5-methyl-1,3,4-oxadiazol-2-yl)-8-(1H-pyrazol-5-yl)-1,7-naphthyridine] | 35.8 |
| C[C@@H]1COCCN1c1cc(N=S2(=O)CCCC2)c2ccnc(-c3ccn[nH]3)c2n1 [Example 137, N-{2-[(3R)-3-methylmorpholin-44-yl]-8-(1H-pyrazol-5-yl)-1,7-naphthyridin-4-yl}tetrahydro-1H-1λ^4-thiophen-1-imine 1-oxide] | 26 |
| C[C@@H]1COCCN1c1cc(N=S(C)(=O)c2ccc(F)cc2)c2ccnc(-c3ccn[nH]3)c2n1 (stereo partly drawn) [Example 138, 4-{[(4-fluorophenyl)(methyl)oxido-λ^6-sulfanylidene]amino}-2-[(3R)-3-methylmorpholin-4-yl]-8-(1H-pyrazol-5-yl)-1,7-naphthyridine] | 29 |
| C[C@@H]1COCCN1c1cc(N=S(C)(=O)c2ccccc2F)c2ccnc(-c3ccn[nH]3)c2n1 (stereo partly drawn) [Example 139, 4-{[(2-fluorophenyl)(methyl)oxido-λ^6-sulfanylidene]amino}-2-[(3R)-3-methylmorpholin-4-yl]-8-(1H-pyrazol-5-yl)-1,7-naphthyridine] | 41.7 |
| C[C@@H]1COCCN1c1cc(P(C)(C)=O)c2ccnc(-c3ccn[nH]3)c2n1 [Example 142, 4-(dimethylphosphoryl)-2-[(3R)-3-methylmorpholin-4-yl]-8-(1H-pyrazol-5-yl)-1,7-naphthyridine] | 44.1 |
| CCP(=O)(CC)c1cc(N2CCOC[C@H]2C)nc2c(-c3ccn[nH]3)nccc12 [Example 143, 4-(diethylphosphoryl)-2-[(3R)-3-methylmorpholin-4-yl]-8-(1H-pyrazol-5-yl)-1,7-naphthyridine] | 27.7 |
| CCOP(=O)(CC(C)C)c1cc(N2CCOC[C@H]2C)nc2c(-c3ccn[nH]3)nccc12 (stereo partly drawn) [Example 144, Ethyl isobutyl{2-[(3R)-3-methylmorpholin-4-yl]-8-(1H-pyrazol-5-yl)-1,7-naphthyridin-4-yl}phosphinate] | 75.1 |
| C[C@@H]1COCCN1c1cc(N2CCOCC2)c2ccnc(-c3ccn[nH]3)c2n1 [Example 145, 2-[(3R)-3-methylmorpholin-4-yl]-4-(morpholin-4-yl)-8-(1H-pyrazol-5-yl)-1,7-naphthyridine] | 18.2 |
| CC(C)Cn1nccc1-c1cc(N2CCOC[C@H]2C)nc2c(-c3ccn[nH]3)nccc12 [Example 146, 4-(1-isobutyl-1H-pyrazol-5-yl)-2-[(3R)-3-methylmorpholin-4-yl]-8-(1H-pyrazol-5-yl)-1,7-naphthyridine] | 35.7 |
| C[C@@H]1COCCN1c1cc(-c2cnc(S(C)(=O)=O)c(F)c2)c2ccnc(-c3ccn[nH]3)c2n1 [Example 147, 4-[5-fluoro-6-(methylsulfonyl)pyridin-3-yl]-2-[(3R)-3-methylmorpholin-4-yl]-8-(1H-pyrazol-5-yl)-1,7-naphthyridine] | 45.4 |
| C[C@@H]1COCCN1c1cc(N2CCOCC2)nc2c(-c3ccn[nH]3)nccc12 [Example 148, 4-[(3R)-3-methylmorpholin-4-yl]-2-(morpholin-4-yl)-8-(1H-pyrazol-5-yl)-1,7-naphthyridine] | 47.9 |
| Cc1cn[nH]c1-c1cc(N2CCOC[C@H]2C)nc2c(-c3ccn[nH]3)nccc12 [Example 149, 2-[(3R)-3-methylmorpholin-4-yl]-4-(4-methyl-1H-pyrazol-5-yl)-8-(1H-pyrazol-5-yl)-1,7-naphthyridine] | 48.4 |
| C[C@@H]1COCCN1c1cc(-c2cc(S(C)(=O)=O)ccc2F)c2ccnc(-c3ccn[nH]3)c2n1 [Example 150, 4-[2-fluoro-5-(methylsulfonyl)phenyl]-2-[(3R)-3-methylmorpholin-4-yl]-8-(1H-pyrazol-5-yl)-1,7-naphthyridine] | 50.3 |
| CC(C)S(=O)(=O)c1ccc(-c2cc(N3CCOC[C@H]3C)nc3c(-c4ccn[nH]4)nccc23)cc1 [Example 151, 4-[4-(isopropylsulfonyl)phenyl]-2-[(3R)-3-methylmorpholin-4-yl]-8-(1H-pyrazol-5-yl)-1,7-naphthyridine] | 51.2 |
| C[C@@H]1COCCN1c1cc(-c2cccc(F)n2)c2ccnc(-c3ccn[nH]3)c2n1 [Example 152, 4-(6-fluoropyridin-2-yl)-2-[(3R)-3-methylmorpholin-4-yl]-8-(1H-pyrazol-5-yl)-1,7-naphthyridine] | 51.8 |
| CCn1cnc(-c2cc(N3CCOC[C@H]3C)nc3c(-c4ccn[nH]4)nccc23)c1 [Example 153, 4-(1-ethyl-1H-imidazol-4-yl)-2-[(3R)-3-methylmorpholin-4-yl]-8-(1H-pyrazol-5-yl)-1,7-naphthyridine] | 54.7 |
| C[C@@H]1COCCN1c1cc(N2CCC[C@H]2C(N)=O)c2ccnc(-c3ccn[nH]3)c2n1 [Example 154, 1-{2-[(3R)-3-methylmorpholin-4-yl]-8-(1H-pyrazol-5-yl)-1,7-naphthyridin-4-yl}prolinamide] | 55 |
| C[C@@H]1COCCN1c1cc(-c2cccnc2N)c2ccnc(-c3ccn[nH]3)c2n1 [Example 155, 3-{2-[(3R)-3-methylmorpholin-4-yl]-8-(1H-pyrazol-5-yl)-1,7-naphthyridin-4-yl}pyridin-2-amine] | 63.3 |
| C[C@@H]1COCCN1c1cc(-c2ccnn2CC(F)(F)F)c2ccnc(-c3ccn[nH]3)c2n1 [Example 156, 2-[(3R)-3-methylmorpholin-4-yl]-8-(1H-pyrazol-5-yl)-4-[1-(2,2,2-trifluoroethyl)-1H-pyrazol-5-yl]-1,7-naphthyridine] | 80.1 |
| C[C@@H]1COCCN1c1cc(N2CCN(C)C(=O)C2)c2ccnc(-c3ccn[nH]3)c2n1 [Example 157, 1-methyl-4-{2-[(3R)-3-methylmorpholin-4-yl]-8-(1H-pyrazol-5-yl)-1,7-naphthyridin-4-yl}piperazin-2-one] | 91.8 |
| C[C@@H]1COCCN1c1cc(-c2ccn(CCF)n2)c2ccnc(-c3ccn[nH]3)c2n1 [Example 158, 4-[1-(2-fluoroethyl)-1H-pyrazol-3-yl]-2-[(3R)-3-methylmorpholin-4-yl]-8-(1H-pyrazol-5-yl)-1,7-naphthyridine] | 13.5 |
| C[C@@H]1COCCN1c1cc(-c2ccnn2CCF)c2ccnc(-c3ccn[nH]3)c2n1 [Example 159, 4-[1-(2-fluoroethyl)-1H-pyrazol-5-yl]-2-[(3R)-3-methylmorpholin-4-yl]-8-(1H-pyrazol-5-yl)-1,7-naphthyridine] | 16.5 |
| C[C@@H]1COCCN1c1cc(-c2ccn(CCO)n2)c2ccnc(-c3ccn[nH]3)c2n1 [Example 160, 2-(3-{2-[(3R)-3-methylmorpholin-4-yl]-8-(1H-pyrazol-5-yl)-1,7-naphthyridin-4-yl}-1H-pyrazol-1-yl)ethanol] | 37.2 |
| C[C@@H]1COCCN1c1cc(-c2ccn(CC(C)(C)O)n2)c2ccnc(-c3ccn[nH]3)c2n1 [Example 161, 2-methyl-1-(3-{2-[(3R)-3-methylmorpholin-4-yl]-8-(1H-pyrazol-5-yl)-1,7-naphthyridin-4-yl}-1H-pyrazol-1-yl)propan-2-ol] | 62.6 |
| C[C@@H]1CN(c2cc(N3CCOCC3)nc3c(-c4ccn[nH]4)nccc23)CCO1 [Example 162, 4-[(2R)-2-methylmorpholin-4-yl]-2-(morpholin-4-yl)-8-(1H-pyrazol-5-yl)-1,7-naphthyridine] | 100 |

Same assay, conditions: tracer B, TR-FRET; read-out: ATR binding (tracer B) IC50

| Compound | IC50 [nM] |
| --- | --- |
| CC(C)S(=O)(=O)c1ccc(-c2cc(N3CCOC[C@H]3C)nc3c(-c4ccn[nH]4)nccc23)cc1 [Example 151, 4-[4-(isopropylsulfonyl)phenyl]-2-[(3R)-3-methylmorpholin-4-yl]-8-(1H-pyrazol-5-yl)-1,7-naphthyridine] | 23.2 |
